Laboratory results reported in ChEMBL document CHEMBL5465560, “Selectivity Literature for EUbOPEN Chemogenomic Library” (2024).

Experiments:
[1] = biological target: Cyclin-dependent kinase 17 (Homo sapiens) (UniProt Q00537); conditions: at 10 µM
[2] = biological target: Histone-lysine N-methyltransferase 2A (Homo sapiens) (UniProt Q03164); assay: Selectivity interaction (Methyltransferase screen (radiometric assays, panel of 8 PRMTs, 21 protein lysine methyltransferases, 3 DNA methyltransferases, and one RNA methyltransferase)) EUB0000272b MLL
Chain of Histone-lysine N-methyltransferase 2A (Homo sapiens) (Q03164 1-2718 limits assumed): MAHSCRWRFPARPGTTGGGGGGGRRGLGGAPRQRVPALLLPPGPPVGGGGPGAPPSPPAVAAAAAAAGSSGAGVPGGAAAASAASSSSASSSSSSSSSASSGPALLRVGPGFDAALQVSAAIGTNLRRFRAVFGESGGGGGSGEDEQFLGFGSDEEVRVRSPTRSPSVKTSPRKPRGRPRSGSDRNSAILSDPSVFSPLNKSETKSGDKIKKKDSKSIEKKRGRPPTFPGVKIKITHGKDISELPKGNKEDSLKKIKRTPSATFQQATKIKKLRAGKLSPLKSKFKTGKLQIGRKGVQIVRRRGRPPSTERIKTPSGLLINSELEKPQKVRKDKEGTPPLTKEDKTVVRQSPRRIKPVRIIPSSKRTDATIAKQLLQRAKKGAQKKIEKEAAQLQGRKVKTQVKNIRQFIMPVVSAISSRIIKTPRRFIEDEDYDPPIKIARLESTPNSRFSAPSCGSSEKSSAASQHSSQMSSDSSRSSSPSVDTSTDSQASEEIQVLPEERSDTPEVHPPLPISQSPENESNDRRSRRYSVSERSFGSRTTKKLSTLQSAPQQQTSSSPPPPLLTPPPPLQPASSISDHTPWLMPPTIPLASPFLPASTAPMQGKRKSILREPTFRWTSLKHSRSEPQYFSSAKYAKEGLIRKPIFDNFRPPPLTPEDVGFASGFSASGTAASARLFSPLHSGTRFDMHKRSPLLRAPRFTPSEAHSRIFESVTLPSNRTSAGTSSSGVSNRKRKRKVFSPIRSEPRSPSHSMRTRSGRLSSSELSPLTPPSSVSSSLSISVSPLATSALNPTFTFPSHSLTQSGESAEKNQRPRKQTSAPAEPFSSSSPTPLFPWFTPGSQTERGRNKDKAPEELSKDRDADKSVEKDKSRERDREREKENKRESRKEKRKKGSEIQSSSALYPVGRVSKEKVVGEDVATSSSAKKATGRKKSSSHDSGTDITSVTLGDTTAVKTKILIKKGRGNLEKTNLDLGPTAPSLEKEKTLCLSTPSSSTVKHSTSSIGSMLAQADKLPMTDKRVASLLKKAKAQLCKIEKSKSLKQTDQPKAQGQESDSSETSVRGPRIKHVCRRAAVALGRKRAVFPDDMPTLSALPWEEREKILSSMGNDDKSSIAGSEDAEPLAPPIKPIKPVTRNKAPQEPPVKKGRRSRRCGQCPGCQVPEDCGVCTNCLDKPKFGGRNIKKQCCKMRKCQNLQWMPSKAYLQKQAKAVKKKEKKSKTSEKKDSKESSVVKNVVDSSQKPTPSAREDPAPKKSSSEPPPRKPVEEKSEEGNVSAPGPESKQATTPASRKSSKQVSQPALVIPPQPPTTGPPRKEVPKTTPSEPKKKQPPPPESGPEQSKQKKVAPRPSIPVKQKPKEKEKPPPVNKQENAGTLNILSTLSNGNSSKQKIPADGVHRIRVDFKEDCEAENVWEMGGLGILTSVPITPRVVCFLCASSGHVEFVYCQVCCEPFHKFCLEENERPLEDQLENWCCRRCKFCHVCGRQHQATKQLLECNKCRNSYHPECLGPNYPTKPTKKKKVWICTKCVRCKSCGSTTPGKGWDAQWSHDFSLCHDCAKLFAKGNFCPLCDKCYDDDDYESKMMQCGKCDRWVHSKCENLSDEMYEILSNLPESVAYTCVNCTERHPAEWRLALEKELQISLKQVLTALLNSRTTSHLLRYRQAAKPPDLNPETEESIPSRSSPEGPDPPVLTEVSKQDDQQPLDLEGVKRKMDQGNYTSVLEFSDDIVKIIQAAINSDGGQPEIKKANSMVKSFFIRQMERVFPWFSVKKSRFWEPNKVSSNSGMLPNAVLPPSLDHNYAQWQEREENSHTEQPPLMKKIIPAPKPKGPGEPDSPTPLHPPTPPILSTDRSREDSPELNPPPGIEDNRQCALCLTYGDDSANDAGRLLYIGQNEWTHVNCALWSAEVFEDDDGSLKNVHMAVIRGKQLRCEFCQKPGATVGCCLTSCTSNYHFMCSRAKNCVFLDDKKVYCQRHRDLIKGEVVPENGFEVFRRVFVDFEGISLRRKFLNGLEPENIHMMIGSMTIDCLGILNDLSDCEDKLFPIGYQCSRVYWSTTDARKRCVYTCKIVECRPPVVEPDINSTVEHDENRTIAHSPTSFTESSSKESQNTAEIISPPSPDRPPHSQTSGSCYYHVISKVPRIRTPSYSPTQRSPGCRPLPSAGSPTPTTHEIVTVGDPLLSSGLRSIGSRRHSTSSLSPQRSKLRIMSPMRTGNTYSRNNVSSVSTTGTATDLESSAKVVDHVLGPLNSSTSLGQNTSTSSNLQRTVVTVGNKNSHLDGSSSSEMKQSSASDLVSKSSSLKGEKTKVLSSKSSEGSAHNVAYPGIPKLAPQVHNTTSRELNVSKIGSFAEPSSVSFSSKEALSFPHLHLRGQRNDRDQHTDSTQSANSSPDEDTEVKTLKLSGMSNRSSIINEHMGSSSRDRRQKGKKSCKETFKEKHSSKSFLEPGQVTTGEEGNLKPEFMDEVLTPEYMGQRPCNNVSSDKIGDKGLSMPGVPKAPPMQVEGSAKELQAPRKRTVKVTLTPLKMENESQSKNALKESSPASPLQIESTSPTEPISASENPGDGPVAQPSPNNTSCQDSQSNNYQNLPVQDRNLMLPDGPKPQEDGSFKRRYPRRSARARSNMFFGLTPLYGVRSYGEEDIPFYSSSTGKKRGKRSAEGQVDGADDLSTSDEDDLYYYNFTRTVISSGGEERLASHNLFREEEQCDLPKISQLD
Chain of Histone-lysine N-methyltransferase 2A (Homo sapiens) (Q03164 2719-3969 limits assumed): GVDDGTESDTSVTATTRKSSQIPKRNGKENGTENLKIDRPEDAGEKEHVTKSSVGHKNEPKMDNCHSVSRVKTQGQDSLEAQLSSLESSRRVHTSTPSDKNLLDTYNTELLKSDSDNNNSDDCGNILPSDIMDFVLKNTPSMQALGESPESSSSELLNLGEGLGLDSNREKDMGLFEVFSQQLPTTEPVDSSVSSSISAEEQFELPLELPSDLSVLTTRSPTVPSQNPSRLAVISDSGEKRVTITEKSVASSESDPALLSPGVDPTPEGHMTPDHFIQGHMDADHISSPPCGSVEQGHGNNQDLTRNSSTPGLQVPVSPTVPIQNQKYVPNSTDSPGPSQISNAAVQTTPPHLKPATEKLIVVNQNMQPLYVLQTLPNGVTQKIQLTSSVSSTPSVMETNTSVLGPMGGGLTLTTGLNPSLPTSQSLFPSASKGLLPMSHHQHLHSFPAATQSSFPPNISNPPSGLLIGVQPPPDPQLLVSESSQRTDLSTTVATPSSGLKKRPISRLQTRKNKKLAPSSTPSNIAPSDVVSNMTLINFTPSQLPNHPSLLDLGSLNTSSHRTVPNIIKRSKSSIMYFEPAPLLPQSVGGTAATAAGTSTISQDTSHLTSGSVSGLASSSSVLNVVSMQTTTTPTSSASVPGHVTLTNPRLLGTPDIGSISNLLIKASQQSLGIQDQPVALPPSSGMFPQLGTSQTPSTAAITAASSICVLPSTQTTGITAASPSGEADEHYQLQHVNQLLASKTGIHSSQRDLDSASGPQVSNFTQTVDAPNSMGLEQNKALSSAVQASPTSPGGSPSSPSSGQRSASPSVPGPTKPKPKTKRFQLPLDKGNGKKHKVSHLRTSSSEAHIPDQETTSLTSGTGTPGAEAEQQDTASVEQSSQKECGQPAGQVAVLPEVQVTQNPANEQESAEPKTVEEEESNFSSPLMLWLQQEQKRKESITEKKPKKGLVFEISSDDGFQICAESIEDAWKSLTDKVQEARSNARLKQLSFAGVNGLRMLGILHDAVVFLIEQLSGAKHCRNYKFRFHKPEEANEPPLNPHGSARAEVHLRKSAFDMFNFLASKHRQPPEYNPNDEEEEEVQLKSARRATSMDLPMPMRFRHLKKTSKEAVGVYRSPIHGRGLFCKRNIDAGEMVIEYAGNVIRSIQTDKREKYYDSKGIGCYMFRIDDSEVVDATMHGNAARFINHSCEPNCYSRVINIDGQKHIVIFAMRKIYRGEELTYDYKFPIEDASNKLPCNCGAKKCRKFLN

[3] = biological target: T1, NUAK family SNF1-like kinase 2 (Homo sapiens) (UniProt Q9H093); conditions: at 10 µM
T1 sequence (whole entry): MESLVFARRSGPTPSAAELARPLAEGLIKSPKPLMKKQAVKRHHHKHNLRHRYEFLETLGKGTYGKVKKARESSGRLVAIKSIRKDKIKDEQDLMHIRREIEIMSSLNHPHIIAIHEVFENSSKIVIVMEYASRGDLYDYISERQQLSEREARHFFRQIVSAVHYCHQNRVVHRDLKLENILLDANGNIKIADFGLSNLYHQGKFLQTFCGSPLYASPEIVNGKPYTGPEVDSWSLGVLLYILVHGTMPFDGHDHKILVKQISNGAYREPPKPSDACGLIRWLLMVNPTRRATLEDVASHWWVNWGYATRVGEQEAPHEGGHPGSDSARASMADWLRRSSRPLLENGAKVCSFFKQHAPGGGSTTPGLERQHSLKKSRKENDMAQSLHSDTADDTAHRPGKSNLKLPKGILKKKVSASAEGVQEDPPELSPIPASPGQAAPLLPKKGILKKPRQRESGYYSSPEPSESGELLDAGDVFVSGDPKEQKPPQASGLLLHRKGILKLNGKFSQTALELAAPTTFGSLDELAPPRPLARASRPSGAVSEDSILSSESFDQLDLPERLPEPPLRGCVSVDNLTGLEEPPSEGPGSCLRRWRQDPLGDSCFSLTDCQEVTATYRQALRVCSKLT

[4] = biological target: Leucine-rich repeat serine/threonine-protein kinase 2 (Homo sapiens, UniProt Q5S007); assay: (§1) Selectivity interaction (KinomeScan (DiscoverX)) EUB0000595a LRRK2; conditions: at 10 µM
[5] = system: Leucine-rich repeat serine/threonine-protein kinase 2 (Homo sapiens), Q5S007 [G2019S]; assay: as §1; conditions: at 10 µM
[6] = biological target: T2, cAMP-dependent protein kinase catalytic subunit PRKX (Homo sapiens) (UniProt P51817); assay: Selectivity interaction (KinomeScan (DiscoverX)) EUB0000618a PRKX; conditions: at 10 µM
T2 sequence (whole entry): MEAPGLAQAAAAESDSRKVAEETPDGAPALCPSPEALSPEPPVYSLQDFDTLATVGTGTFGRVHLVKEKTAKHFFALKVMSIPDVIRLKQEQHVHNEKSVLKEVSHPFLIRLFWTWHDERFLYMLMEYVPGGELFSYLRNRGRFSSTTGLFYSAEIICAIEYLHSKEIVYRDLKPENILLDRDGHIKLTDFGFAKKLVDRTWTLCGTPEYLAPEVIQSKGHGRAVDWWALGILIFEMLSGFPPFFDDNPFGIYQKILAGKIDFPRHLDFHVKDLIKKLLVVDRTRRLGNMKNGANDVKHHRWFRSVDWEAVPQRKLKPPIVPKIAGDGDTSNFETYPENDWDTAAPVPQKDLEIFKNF

[7] = biological target: Receptor tyrosine-protein kinase erbB-3 (Homo sapiens) (UniProt P21860); assay: Selectivity interaction (Ambit KINOMEscan and KiNATiv profiling in Jurkat cells) EUB0000090b ERBB3; type: cell-based; conditions: at 1 µM
[8] = biological target: T3, Serine/threonine-protein kinase Nek2 (Homo sapiens) (UniProt P51955); assay: Selectivity interaction (Kinase screening (Nanosyn)) EUB0000604a NEK2
T3 sequence (whole entry): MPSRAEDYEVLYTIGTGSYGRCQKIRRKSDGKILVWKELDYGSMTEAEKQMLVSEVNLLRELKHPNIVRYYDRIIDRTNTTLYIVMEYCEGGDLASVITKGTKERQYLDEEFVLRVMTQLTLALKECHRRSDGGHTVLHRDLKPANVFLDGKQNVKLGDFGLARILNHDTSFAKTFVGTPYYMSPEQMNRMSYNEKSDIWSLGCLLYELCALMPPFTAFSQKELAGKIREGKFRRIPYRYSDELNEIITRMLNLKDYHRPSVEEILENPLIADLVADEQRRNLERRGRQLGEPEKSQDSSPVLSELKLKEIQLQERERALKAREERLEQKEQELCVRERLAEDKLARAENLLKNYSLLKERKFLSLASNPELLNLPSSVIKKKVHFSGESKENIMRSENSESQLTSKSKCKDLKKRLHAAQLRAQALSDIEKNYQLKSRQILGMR

[9] = biological target: T4, Tyrosine-protein kinase ZAP-70 (Homo sapiens) (UniProt P43403); assay: Selectivity interaction (ActivX KiNativ screen (ex vivo kinase selectivity in human PBMCs)) EUB0001619a ZAP70; type: cell-based; conditions: PBMC, at 1 µM
T4 sequence (whole entry): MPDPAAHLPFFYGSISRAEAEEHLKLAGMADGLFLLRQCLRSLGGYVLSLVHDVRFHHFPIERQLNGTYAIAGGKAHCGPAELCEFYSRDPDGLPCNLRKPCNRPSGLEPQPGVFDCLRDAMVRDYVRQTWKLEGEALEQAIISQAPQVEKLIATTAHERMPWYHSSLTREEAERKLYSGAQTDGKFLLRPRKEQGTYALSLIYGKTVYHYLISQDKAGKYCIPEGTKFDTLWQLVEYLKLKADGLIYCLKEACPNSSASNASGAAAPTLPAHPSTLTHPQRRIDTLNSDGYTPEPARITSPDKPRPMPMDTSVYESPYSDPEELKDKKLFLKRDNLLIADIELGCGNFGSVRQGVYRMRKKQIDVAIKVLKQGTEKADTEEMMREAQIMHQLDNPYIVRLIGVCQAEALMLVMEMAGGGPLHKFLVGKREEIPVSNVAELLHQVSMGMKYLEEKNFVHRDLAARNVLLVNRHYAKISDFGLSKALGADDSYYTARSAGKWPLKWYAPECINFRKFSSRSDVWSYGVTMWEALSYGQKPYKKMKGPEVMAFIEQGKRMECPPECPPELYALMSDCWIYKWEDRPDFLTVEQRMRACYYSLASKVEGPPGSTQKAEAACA

Chain of Cyclin-dependent kinase 17 (Homo sapiens) (Q00537 whole entry, looked up): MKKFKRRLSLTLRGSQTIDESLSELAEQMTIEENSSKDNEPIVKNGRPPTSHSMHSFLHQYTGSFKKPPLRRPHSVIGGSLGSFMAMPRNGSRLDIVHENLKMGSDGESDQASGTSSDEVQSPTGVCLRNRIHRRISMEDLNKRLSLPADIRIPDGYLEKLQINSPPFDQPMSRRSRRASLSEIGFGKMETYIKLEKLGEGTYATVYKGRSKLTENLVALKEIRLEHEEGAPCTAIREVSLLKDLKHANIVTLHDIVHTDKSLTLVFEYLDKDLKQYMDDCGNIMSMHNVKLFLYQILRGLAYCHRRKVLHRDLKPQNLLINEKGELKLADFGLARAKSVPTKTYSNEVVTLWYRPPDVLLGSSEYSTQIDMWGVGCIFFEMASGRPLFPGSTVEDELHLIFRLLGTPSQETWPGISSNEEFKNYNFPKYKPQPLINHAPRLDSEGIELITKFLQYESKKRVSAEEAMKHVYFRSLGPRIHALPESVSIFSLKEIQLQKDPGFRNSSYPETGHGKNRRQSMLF

CCN(CC)CCCCNc1ncc2cc(-c3cc(OC)cc(OC)c3)c(NC(=O)NC(C)(C)C)nc2n1
% of control [1]: 100%

Cc1cc(C)cc([C@H]2c3cc(C)ccc3NC(=O)CN2C(=O)c2ccc(Br)s2)c1
% of activity ([2]; at 1 µM): 99.3% | % of activity ([2]; at 10 µM): 100%

Cc1cc([C@@H](C)Nc2ccccc2C(=O)O)c2nc(N3CCOCC3)cc(=O)n2c1 [AZD-6482]
% of control [3]: 84%

COCC(=O)NC/C=C/c1ccc2ncnc(Nc3ccc(Oc4ccc(C)nc4)c(C)c3)c2c1 [CP-724714]
% of control [4]: 100% | % of control [5]: 98%

O[C@H]1CC[C@H](Nc2ncc3nc(Nc4c(F)cc(F)cc4F)n([C@H]4CCOC4)c3n2)CC1
% of control [6]: 100%

CN(C)C/C=C/C(=O)Nc1ccc(C(=O)N2CCCC(Nc3ncc(Cl)c(-c4c[nH]c5ccccc45)n3)C2)cc1 (stereo not given)
% of control [7]: 98%

Cc1cnc(Nc2ccc(F)cc2Cl)nc1-c1c[nH]c(C(=O)N[C@H](CO)c2cccc(Cl)c2)c1
% of inhibition [8]: 3%

N#Cc1cccc(-c2c[nH]c3ncnc(N4CCOCC4)c23)c1
% of inhibition [9]: -33%
